# In paper PMC13270500, “Legacy 4(1H)‑Quinolone Scaffolds Activity against Acute and Chronic Toxoplasma gondii Infection” (ACS Infectious Diseases, 2026):
# Tests used:
# [1] = test system: T. gondii RH (type I) tachyzoites; experiment: In vitro tachyzoite growth dose response, RH-RFP (red fluorescence); format: cell-based; conditions: Toxoplasma gondii, RH-RFP type I wild-type, in vitro proliferation; read-out: EC50 against RH tachyzoites
# Description: Experiments with T. gondii tachyzoites were carried out with parasites expressing a td-Tomato red fluorescent protein (RFP). , Parasites were purified by passing them through a 25-gauge needle, followed by filtration through a 5 μm filter. Human fibroblasts were cultured in 96-well black plates for 48 (hTERT) or 120 (HFF) hours before the addition of 4,000 fluorescent tachyzoites/well. […] Two technical replicates per concentration were used, and the experiment was repeated in three independent biological replicates. Fluorescence values were measured for up to 7 days, and both excitation (544 nm) and emission (590 nm) were read from the bottom of the plates in a BioTek Synergy H1 Hybrid plate reader. […] The EC50s were calculated using GraphPad Prism software version 10.
# [2] = test system: ME49 R4 ATQ^R tachyzoites; experiment: In vitro tachyzoite growth dose response, ATQ-resistant strain R4 (crystal violet); format: cell-based; conditions: Toxoplasma gondii, read-out: EC50 against R4 ATQ^R strain
compound,measurement,setting,value
"O=C1C(O)=C([C@H]2CC[C@H](c3ccc(Cl)cc3)CC2)C(=O)c2ccccc21 [ATQ, atovaquone]",EC50,[1],14.1 nM
same,EC50,[2],1870 nM
